Measurements from PMC9313110, “Modulating the Fibrillization of Parathyroid-Hormone (PTH) Peptides: Azo-Switches as Reversible and Catalytic Entities” (Biomedicines, 2022).
In brackets after ≈: the same amount, converted by molar mass. Starred links: 1 amine or outer side, 2 acyl side, 3 side chain; linkers in the order of their positions; H or OH if unused. Non-standard residues stand in square brackets, D forms with d. Residues, ends and D or L forms follow the SMILES beside them. X3 = O=C(c1cccc(N=Nc2ccc(CN[*:1])cc2)c1)[*:2]

Assays:
[1] = Maximum solubility in fibrillization buffer; assay type: physicochemical; conditions: 50 mM Na2HPO4 buffer (pH 7.4), UV-Vis absorption (ε = 49310 M-1cm-1 at 205 nm for PTH25-37, ε = 13000 M-1cm-1 at 327 nm for 3,4'-AMPB peptides)
Protocol: ThT-monitored fibrillization assays of artificial peptides and mixtures with PTH25–37 were investigated by fluorescence intensity measurements using thioflavin T (ThT) as fluorescent dye. Lyophilized peptides were dissolved in 50 mM Na2HPO4 buffer solution with a pH value of 7.4 in a concentration of 2 mg/mL and kept on ice for the next steps. The samples were centrifuged at 13,000× […] for 10 s and the concentrations were determined with a JASCO V-660 absorbance spectrometer (JASCO, Pfungstadt, Germany; PTH25–37 by absorbance at 205 nm and the molar extinction coefficient of 49,310 cm^−1M^−1; trans-AzoPTH25–37 by absorbance at 327 nm and the molar extinction coefficient of 13,000 cm^−1M^−1). Cis-AzoPTH25–37 was produced as described before. The solutions were centrifuged at 10,000 rpm for 1 h at 4 °C, the supernatant was transferred to another tube. The protein solutions were mixed in the desired ration and diluted with 50 mM Na2HPO4 buffer (pH 7.4) to obtain final concentrations of 0/100 μM PTH25–37, 50 μM ThT, and 0/10/20/50/100 μM AzoPTH25–37. For each sample, a total volume of 480 μL was prepared and 3 × 150 μL were transferred to a medium binding 96-well plate (Greiner Bio-One, Kremsmünster, Austria). The plate was sealed with a microplate cover. The fluorescence intensity was monitored at 37 °C using a BMG FLUOStar Omega multi-mode plate reader (BMG LABTECH, Ortenberg, Germany) using fluorescence excitation and emission wavelengths at 460 nm and 485 nm, respectively. One measurement cycle of 5 min consisted of double-orbital shaking for 150 s and incubating for 150 s.
2. Peptide Characterisation
Table S1: Primary sequence and solubility in 50 mM Na2PO4 buffer (pH 7.4) of peptides AzoPTH25-37 and SP1-
peptide primary sequencea solubility [μM]b
a Azo = 3,4’-AMPB; b maximum solubility was determined via UV-Vis absorption spectroscopy
2.2. HPLC- and MALDI-ToF-data
Figure S1: (A) HPLC-trace of AzoPTH25-37 (cis-isomer at 5.353, trans-isomer at 5.530). (B) MALDI-spectrum

[2] = assay type: physicochemical
From the text: We first studied the photophysical properties of the cis-trans-isomerization of AzoPTH25–37 (Figure 1b) by UV/Vis spectroscopy and HPLC analysis in pure water in order to minimize effects of a potential self-assembly and to quantify the generated amounts of the respective cis/trans-modified peptides before and after photoswitching. The UV/Vis spectra for the pure isomers (Figure S6) were separated from the spectra of trans-enriched AzoPTH25–37 in the thermodynamically stable state after synthesis and in the cis-enriched photostationary state (PSS, Figure 3) with Wolfram Mathematica 12.2. […] Both isomers display two isobestic points at 278 nm and 388 nm. They represent in the thermodynamically stable state a cis-trans ratio of 3:97. Under irradiation with UV light (340 nm), the cis-content could be increased of up to 82% in the cis-enriched PSS. Visible light (405 nm) yields 76% of the trans-isomer in the trans-enriched PSS via the back reaction. The difference of the trans-content between the trans-enriched PSS at 405 nm and the thermodynamically stable state arises from the overlapping of the n → π* transitions of both isomers at this wavelength. The rate of thermal cis-to-trans isomerization of AzoPTH25–37 follows first-order kinetics, and was determined by monitoring the increase of the π → π* absorption band at 327 nm (Figure S7) via time-dependent UV measurements.
2.3. […]

[3] = in the dark; ref [41],[42]; cited from earlier work
[4] = ThT-monitored fibrillization assay of the pure peptides; assay type: physicochemical; conditions: pure peptide 100 μM; 50 μM ThT; 50 mM Na2HPO4, pH 7.4; 37 °C; fluorescence ex 460 nm/em 485 nm; average of triplets
Protocol: ThT-monitored fibrillization assays of artificial peptides and mixtures with PTH25–37 were investigated by fluorescence intensity measurements using thioflavin T (ThT) as fluorescent dye. Lyophilized peptides were dissolved in 50 mM Na2HPO4 buffer solution with a pH value of 7.4 in a concentration of 2 mg/mL and kept on ice for the next steps. The samples were centrifuged at 13,000× […] for 10 s and the concentrations were determined with a JASCO V-660 absorbance spectrometer (JASCO, Pfungstadt, Germany; PTH25–37 by absorbance at 205 nm and the molar extinction coefficient of 49,310 cm^−1M^−1; trans-AzoPTH25–37 by absorbance at 327 nm and the molar extinction coefficient of 13,000 cm^−1M^−1). Cis-AzoPTH25–37 was produced as described before. […] The fluorescence intensity was monitored at 37 °C using a BMG FLUOStar Omega multi-mode plate reader (BMG LABTECH, Ortenberg, Germany) using fluorescence excitation and emission wavelengths at 460 nm and 485 nm, respectively. […]
In order to determine the kinetics of fibril formation of both modified AzoPTH25–37 isomers a thioflavin T (ThT)-monitored fibrillization assay was conducted and compared to PTH25–37. […] Causing a large red shift of fluorescence excitation of ThT, which in turn enables the selective excitation of amyloid fibril-bound ThT and therefore the in situ observation of fibril formation. […]

| SMILES | solubility (maximum solubility) [1] | other results |
| --- | --- | --- |
| CC(C)C[C@H](NC(=O)[C@H](C)NC(=O)[C@@H](NC(=O)[C@H](Cc1ccccc1)NC(=O)[C@H](CC(N)=O)NC(=O)[C@H](Cc1c[nH]cn1)NC(=O)c1cccc(N=Nc2ccc(CNC(=O)[C@H](CC(=O)O)NC(=O)[C@H](CCC(N)=O)NC(=O)[C@H](CC(C)C)NC(=O)[C@H](CCCCN)NC(=O)[C@H](CCCCN)NC(=O)[C@@H](N)CCCNC(=N)N)cc2)c1)C(C)C)C(=O)O [AzoPTH25–37] (H-RKKLQD[X3]HNFVAL-OH) | 240 µM (≈ 409 µg/mL) | solubility (maximum solubility) ([1]; listed as AzoPTH25-37): 250 µM (≈ 426 µg/mL); photostability in the dark [2]: more than 20 h |
| CC(C)C[C@H](NC(=O)[C@H](C)NC(=O)[C@@H](NC(=O)[C@H](Cc1ccccc1)NC(=O)[C@H](CC(N)=O)NC(=O)[C@H](Cc1c[nH]cn1)NC(=O)c1cccc(N=Nc2ccc(CNC(=O)[C@@H](NC(=O)[C@H](CC(=O)O)NC(=O)[C@H](CCC(N)=O)NC(=O)[C@H](CC(C)C)NC(=O)[C@H](CCCCN)NC(=O)[C@H](CCCCN)NC(=O)[C@@H](N)CCCNC(=N)N)C(C)C)cc2)c1)C(C)C)C(=O)O [SP2] (H-RKKLQDV[X3]HNFVAL-OH) | 55 µM (≈ 99.3 µg/mL) | – |
| CC(C)C[C@H](NC(=O)[C@H](C)NC(=O)[C@@H](NC(=O)[C@H](Cc1ccccc1)NC(=O)[C@H](CC(N)=O)NC(=O)[C@H](Cc1c[nH]cn1)NC(=O)[C@@H](NC(=O)c1cccc(N=Nc2ccc(CNC(=O)[C@H](CCC(N)=O)NC(=O)[C@H](CC(C)C)NC(=O)[C@H](CCCCN)NC(=O)[C@H](CCCCN)NC(=O)[C@@H](N)CCCNC(=N)N)cc2)c1)C(C)C)C(C)C)C(=O)O [SP3] (H-RKKLQ[X3]VHNFVAL-OH) | 35 µM (≈ 59.2 µg/mL) | – |
| NCc1ccc(N=Nc2cccc(C(=O)O)c2)cc1 [3,4′-AMPB, 3-{[(4-aminomethyl)phenyl]diazenyl}benzoic acid] | – | half-life time of thermal back-isomerization of the photoswitch [3]: more than 20 h |
| CC(C)C[C@H](NC(=O)[C@H](C)NC(=O)[C@@H](NC(=O)[C@H](Cc1ccccc1)NC(=O)[C@H](CC(N)=O)NC(=O)[C@H](Cc1c[nH]cn1)NC(=O)c1cccc(N=Nc2ccc(CNC(=O)[C@H](CCC(N)=O)NC(=O)[C@H](CC(C)C)NC(=O)[C@H](CCCCN)NC(=O)[C@H](CCCCN)NC(=O)[C@@H](N)CCCNC(=N)N)cc2)c1)C(C)C)C(=O)O [SP4] (H-RKKLQ[X3]HNFVAL-OH) | 25 µM (≈ 39.8 µg/mL) | – |
| CC(C)C[C@H](NC(=O)[C@H](C)NC(=O)[C@@H](NC(=O)[C@H](Cc1ccccc1)NC(=O)[C@H](CC(N)=O)NC(=O)[C@H](Cc1c[nH]cn1)NC(=O)[C@@H](NC(=O)c1cccc(N=Nc2ccc(CNC(=O)[C@H](CC(=O)O)NC(=O)[C@H](CCC(N)=O)NC(=O)[C@H](CC(C)C)NC(=O)[C@H](CCCCN)NC(=O)[C@H](CCCCN)NC(=O)[C@@H](N)CCCNC(=N)N)cc2)c1)C(C)C)C(C)C)C(=O)O [SP1] (H-RKKLQD[X3]VHNFVAL-OH) | 60 µM (≈ 108 µg/mL) | – |
| CC(C)C[C@H](NC(=O)[C@H](C)NC(=O)[C@@H](NC(=O)[C@H](Cc1ccccc1)NC(=O)[C@H](CC(N)=O)NC(=O)[C@H](Cc1c[nH]cn1)NC(=O)[C@@H](NC(=O)[C@H](CC(=O)O)NC(=O)[C@H](CCC(N)=O)NC(=O)[C@H](CC(C)C)NC(=O)[C@H](CCCCN)NC(=O)[C@H](CCCCN)NC(=O)[C@@H](N)CCCNC(=N)N)C(C)C)C(C)C)C(=O)O [PTH25–37] (H-RKKLQDVHNFVAL-OH) | > 1000 µM | tchar (time at which 50% of the maximum fluorescence was reached) [4]: 10.9 h; tlag (lag time, time before an increase in the fluorescence signal occurs) [4]: 7.2 h |
